Converted amounts (≈) assume the structure as drawn. Like-named read-outs stand apart in the source and are kept apart here.
Experiments:
Solubility pH 7 = conditions: pH 7, aqueous buffer
[1] = biological target: human 20S immunoproteasome (i20S) (Homo sapiens, UniProt P28062); experiment: 20S proteasome assay, chymotrypsin-like activity (succinyl-Leu-Leu-Val-Tyr-AMC), i20S; format: biochemical
Source text: (§1) Assay buffer consisted of TE buffer [20 mmol/L Tris (pH 8.0), 0.5 mmol/L EDTA] with (20S) or without (cell lysate) 0.03% SDS. Reactions were initiated by enzyme or lysate addition and monitored for AMC product formation at 27jC with a plate-based spectofluorometer (Tecan).

[2] = biological target: human constitutive 20S proteasome (c20S) (Homo sapiens, UniProt P28074); experiment: 20S proteasome assay, chymotrypsin-like activity (succinyl-Leu-Leu-Val-Tyr-AMC), c20S; format: biochemical; conditions: LLVY substrate, 1 h continuous
Source text: as §1

[3] = biological target: T1, immunoproteasome subunit LMP7 (Homo sapiens, UniProt P28062); experiment: Proteasome active-site ELISA (ProCISE), LMP7, MOLT-4 lysate; format: biochemical; conditions: read-out: ProCISE LMP7 MOLT4 lysate Hu 1 h CONT: IC50, 1 h continuous treatment, 25° C.
T1 construct: Lysate from the human acute lymphoblastic leukemia cell line, MOLT-4; endogenous in cells; host or cells: MOLT-4
How it was run: (§2)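 MOLT-4 cell lysate treated 1 h at 25 °C with compound; probe-bound subunits denatured, pulled down on streptavidin beads and detected with subunit-specific antibodies plus HRP chemiluminescence.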

[4] = biological target: T2, proteasome subunit β5 (beta5) (Homo sapiens, UniProt P28074); experiment: Proteasome active-site ELISA (ProCISE), beta5, MOLT-4 lysate; format: biochemical; conditions: read-out: ProCISE beta5 MOLT4 lysate Hu 1 h CONT: IC50; MOLT4 lysate, human, 1 h continuous treatment, 25° C.
T2 construct: Lysate from the human acute lymphoblastic leukemia cell line, MOLT-4; endogenous in cells; host or cells: MOLT-4
How it was run: as §2

[5] = read-out: LLVY i20S Hu 1 h CONT: IC50, LLVY substrate, 1 h continuous

Compound | solubility (Solubility pH 7) [mg/mL] | IC50 ([1]; LLVY substrate, 1 h continuous) [µM] | IC50 [2] [µM] | IC50 [1, 5] [µM] | IC50 [3] [µM] | IC50 [4] [µM]
COc1ccc(C[C@H](NC(=O)[C@H](C)NC(=O)CN2CCOCC2)C(=O)N[C@@H](C[C@H]2CC[C@@H](O)CC2)C(=O)[C@@]2(C)CO2)cc1 [Compound C-1001, (S)-N-((S)-3-((1s,4R)-4-hydroxycyclohexyl)-1-((R)-2-methyloxiran-2-yl)-1-oxopropan-2-yl)-3-(4-methoxyphenyl)-2-((S)-2-(2-morpholinoacetamido)propanamido)propanamide] | 2.64 (≈ 4.37 mM) | 3.23 | > 10 |  |  | 
COc1ccc(C[C@H](NC(=O)[C@H](C)NC(=O)CN2CCOCC2)C(=O)N[C@@H](CC2CCCC2)C(=O)[C@@]2(C)CO2)c(F)c1 [Compound C-1008, (S)-N-((S)-3-cyclopentyl-1-((R)-2-methyloxiran-2-yl)-1-oxopropan-2-yl)-3-(2-fluoro-4-methoxyphenyl)-2-((S)-2-(2-morpholinoacetamido)propanamido)propanamide] | 1.43 (≈ 2.42 mM) | 2.5 | 3.38 |  |  | 
C[C@H](NC(=O)CN1CCOCC1)C(=O)N[C@@H](Cc1ccco1)C(=O)N[C@@H](CC1CCCC1)C(=O)[C@@]1(C)CO1 [Compound C-1013, (S)-N-((S)-3-cyclopentyl-1-((R)-2-methyloxiran-2-yl)-1-oxopropan-2-yl)-3-(furan-2-yl)-2-((S)-2-(2-morpholinoacetamido)propanamido)propanamide] | 0.911 (≈ 1.71 mM) | 0.445 | 0.548 |  |  | 
C[C@H](NC(=O)CN1CCOCC1)C(=O)N[C@@H](Cc1c[nH]c2ccccc12)C(=O)N[C@@H](CC1CCCC1)C(=O)[C@@]1(C)CO1 [Compound C-1014, (S)-N-((S)-3-cyclopentyl-1-((R)-2-methyloxiran-2-yl)-1-oxopropan-2-yl)-3-(1H-indol-3-yl)-2-((S)-2-(2-morpholinoacetamido)propanamido)propanamide] | 1.02 (≈ 1.75 mM) | 0.289 | 0.806 |  |  | 
COc1ccc([C@H](O)[C@H](NC(=O)[C@H](C)NC(=O)CN2CCOCC2)C(=O)N[C@@H](CC2CCCC2)C(=O)[C@@]2(C)CO2)cc1 [Compound C-1023, (2S,3S)-N-((S)-3-cyclopentyl-1-((R)-2-methyloxiran-2-yl)-1-oxopropan-2-yl)-3-hydroxy-3-(4-methoxyphenyl)-2-((S)-2-(2-morpholinoacetamido)propanamido)propanamide] | 3.87 (≈ 6.57 mM) | 0.322 | 1.88 |  |  | 
C[C@H](NC(=O)CN1CCOCC1)C(=O)N[C@@H](Cc1ccccn1)C(=O)N[C@@H](Cc1ccccc1)C(=O)[C@@]1(C)CO1 [Compound C-1155] | 2.09 (≈ 3.79 mM) |  |  | 0.252 |  | 
C[C@H](NC(=O)CN1CCOCC1)C(=O)N[C@@H](Cc1ccncc1)C(=O)N[C@@H](Cc1ccccc1)C(=O)[C@@]1(C)CO1 [Compound C-1171] | 1.68 (≈ 3.05 mM) |  |  | 0.0631 | 0.051 | 0.252
COc1ccc(C[C@H](NC(=O)[C@@H](NC(=O)CN2CCOCC2)[C@@H](C)O)C(=O)N[C@@H](Cc2ccccc2)C(=O)[C@@]2(C)CO2)cc1 [Compound C-1173] | 2.34 (≈ 3.84 mM) |  |  | 0.0336 | 0.0289 | 0.114
C[C@H](NC(=O)CN1CCOCC1)C(=O)N[C@@H](Cc1cccnc1)C(=O)N[C@@H](Cc1ccccc1)C(=O)[C@@]1(C)CO1 [Compound C-1175] | 2.48 (≈ 4.49 mM) |  |  | 0.129 | 0.107 | 0.441
COc1ccc(C[C@H](NC(=O)[C@H](C)NC(=O)NN2CCOCC2)C(=O)N[C@@H](Cc2ccccc2)C(=O)[C@@]2(C)CO2)cc1 [Compound C-1178] | 1.19 (≈ 2.05 mM) |  |  | 0.241 | 0.51 | 3.84
COc1ccc(C[C@H](NC(=O)[C@H](C)NC(=O)CN2CCOCC2)C(=O)N[C@@H](Cc2cccc(F)c2)C(=O)[C@@]2(C)CO2)cc1 [Compound C-1180] | 1.38 (≈ 2.31 mM) |  |  | 0.0259 | 0.021 | 0.312
COc1ccc(C[C@H](NC(=O)[C@H](C)NC(=O)CN2CCOCC2)C(=O)N[C@@H](Cc2ccc(C)cc2)C(=O)[C@@]2(C)CO2)cc1 [Compound C-1181] | 0.938 (≈ 1.58 mM) |  |  | 0.0135 | 0.0135 | 0.12
COc1ccc(C[C@H](NC(=O)[C@@H](NC(=O)CN2CCOCC2)C2COC2)C(=O)N[C@@H](Cc2ccccc2)C(=O)[C@@]2(C)CO2)cc1 [Compound C-1183] | 4.54 (≈ 7.29 mM) |  |  | 0.0215 | 0.0171 | 0.101
COc1ccc(C[C@H](NC(=O)[C@@H](NC(=O)CN2CCOCC2)C2(O)CC2)C(=O)N[C@@H](Cc2ccccc2)C(=O)[C@@]2(C)CO2)cc1 [Compound C-1184] | 2.73 (≈ 4.39 mM) |  |  | 0.0105 | 0.0195 | 0.0639
COc1ccc(C[C@H](NC(=O)[C@@H](C)NC(=O)[C@H]2CC[C@@H](O)CC2)C(=O)N[C@@H](Cc2ccccc2)C(=O)[C@@]2(C)CO2)cc1 [Compound C-1187] | 0.13 (≈ 0.225 mM) |  |  |  | 0.0105 | 0.0434
COc1ccc(C[C@H](NC(=O)[C@@H](C)NC(=O)C2CCCCC2)C(=O)N[C@@H](Cc2ccccc2)C(=O)[C@@]2(C)CO2)cc1 [Compound C-1188] | 0.0121 (≈ 0.0215 mM) |  |  |  | 0.0292 | 0.185
COc1ccc(C[C@H](NC(=O)[C@@H](C)NC(=O)C2CCCC2)C(=O)N[C@@H](Cc2ccccc2)C(=O)[C@@]2(C)CO2)cc1 [Compound C-1189] | 0.0227 (≈ 0.0413 mM) |  |  |  | 0.0585 | 0.476
COc1ccc(C[C@H](NC(=O)[C@@H](C)NC(=O)[C@H]2CC[C@H](O)CC2)C(=O)N[C@@H](Cc2ccc(C)cc2)C(=O)[C@@]2(C)CO2)cc1 [Compound C-1190] | 0.457 (≈ 0.769 mM) |  |  |  | 0.0168 | 0.205
COc1ccc(C[C@H](NC(=O)[C@@H](C)NC(=O)[C@H]2CC[C@H](O)CC2)C(=O)N[C@@H](Cc2ccc(O)cc2)C(=O)[C@@]2(C)CO2)cc1 [Compound C-1191] | 4.25 (≈ 7.13 mM) |  |  |  | 0.0247 | 0.678
COC[C@H](NC(=O)CN1CCOCC1)C(=O)N[C@@H](Cc1ccc(OC)cc1)C(=O)N[C@@H](Cc1ccccc1)C(=O)[C@@]1(C)CO1 [Compound C-1220] |  |  |  | 0.011 |  | 
C=CC(=O)NC[C@H](NC(=O)[C@H](C)NC(=O)CN1CCOCC1)C(=O)N[C@@H](Cc1ccccc1)C(=O)[C@@]1(C)CO1 [Compound C-1225] | 3.45 (≈ 6.34 mM) |  |  | 0.0186 | 0.0495 | 0.205
C[C@H](NC(=O)CN1CCOCC1)C(=O)N[C@@H](CC1=CCCCC1)C(=O)N[C@@H](Cc1ccccc1)C(=O)[C@@]1(C)CO1 [Compound C-1227] | 1.98 (≈ 3.56 mM) |  |  | 0.649 |  | 
COC[C@H](NC(=O)[C@H](C)NC(=O)CN1CCOCC1)C(=O)N[C@@H](Cc1ccccc1)C(=O)[C@@]1(C)CO1 [Compound C-1234] |  |  |  | 1.5 |  | 
C[C@H](NC(=O)CN1CCOCC1)C(=O)N[C@@H](CC1CCCCC1)C(=O)N[C@@H](Cc1ccccc1)C(=O)[C@@]1(C)CO1 [Compound C-1235] |  |  |  | 0.39 |  | 
